Experimental data: patent US11045419B2, “Pharmaceutical preparation of carbohydrates for therapeutic use” (Glycomine, Inc., priority 2013, dated 2021)

Tested on: CDG-Ia fibroblasts
Test: LLO oligosaccharide distribution in fibroblasts by normal phase chromatography
Assay type: cell-based, human
Details: low glucose DMEM, 300 μM treatment, peak area normalized to protein content
Experimental: Cellular internalization into the cytosol and subsequent integration of the M1P-liposomes (as prepared in Example 1), was assessed in vitro using primary human dermal fibroblasts derived from patients affected with CDG-Ia disorder (CDG-Ia fibroblasts) and wild-type human dermal fibroblasts. For evaluation of the ability of the M1P-liposomes to correct protein glycosylation defects, M1P-liposomes were delivered to CDG Type I primary fibroblasts derived from patients affected with CDG-Ia disorder. The ability to drive glycosylation forward was evaluated by comparing glycoprotein N-glycan structure before and after treatment. Such comparison required N-glycan analysis using normal phase chromatography. By utilizing endocytotic pathways, M1P-liposomes can enter the cell interior and release their cargo into the cytosol. Due to the ability to deliver a non-modified mannose-1-phosphate into the cytosol, analysis was performed on the assembly of LLO oligosaccharides in wild-type fibroblasts and fibroblasts derived from a CDG-Ia patient ([…] structures were isolated from the wild-type fibroblasts (having 100% PMM activity) as well as from the CDG-Ia fibroblasts (having 10% PMM activity) and the amounts of the LLO structures were compared using chromatographic methods. CDG-Ia dermal fibroblasts make a series of truncated lipid-linked oligosaccharide (LLO) species ranging in size from M2Gn2 to M5Gn2 with M2Gn2 and M3Gn2 being predominant. The M1P liposomes from Example 1 were tested in order to evaluate their capacity to normalize the distribution of various LLO oligosaccharides. CDG-Ia fibroblasts cultured in low glucose DMEM media were incubated with 300 μM of bare M1P (M1P) and 300 μM of the M1P-liposomes (M1PL). After treatment, cells were harvested and LLO oligosaccharides were recovered, hydrolyzed, modified with fluorophore, and analyzed by normal phase chromatography as described by Gao et al. (Methods in Enzymology, 2006, 415, 3-20) and Bones et al. (Anal. Chem, 2011, 83 (13), 5344-52). The peak area of each LLO was normalized to protein content prior to calculation of percentage abundance.

O=P(O)(O)OC1O[C@H](CO)[C@@H](O)[C@H](O)[C@@H]1O (stereo partly shown) [M1P, mannose-1-phosphate]
M2Gn2 LLO oligosaccharide distribution (percentage abundance): 40%
M3Gn2 LLO oligosaccharide distribution (percentage abundance): 24%
M4Gn2 LLO oligosaccharide distribution (percentage abundance): 27%
M5Gn2 LLO oligosaccharide distribution (percentage abundance): 8.9%
